Measurements reported in patent US20260021147A1, “COMPOSITIONS AND METHODS FOR TREATING INFLAMMATORY DISEASE” (The Regents of the University of Michigan, priority 2022, published 2026).

How the values were obtained:
[1] = Short chain fatty acids profiling of mouse feces by IC-MS; format: in vivo, mice; conditions: allogeneic mice, day 20
Procedure: To determine the relative abundance of short chain fatty acids in mouse feces samples, extracts were prepared and analyzed by ultra-high resolution mass spectrometry (HRMS). Fecal pellets were homogenized with a Precellys Tissue Homogenizer. Metabolites were extracted using 1 mL ice-cold 0.1% Ammonium hydroxide in 80/20 (v/v) methanol/water. Extracts were centrifuged at 17,000 g for 5 min at 4° C., and supernatants were transferred to clean tubes, followed by evaporation to dryness under nitrogen. Dried extracts were reconstituted in deionized water, and 5 μL was injected for analysis by IC-MS. IC mobile phase A (MPA; weak) was water, and mobile phase B (MPB; strong) was water containing 100 mM KOH. A Thermo Scientific Dionex ICS-5000+ system included a Thermo IonPac AS11 column (4 μm particle size, 250×2 mm) with column compartment kept at 30° C. The autosampler tray was chilled to 4° C. The mobile phase flow rate was 360 μL/min, and the gradient elution program was: 0-5 min, 1% MPB; 5-25 min, 1-35% MPB; 25-39 min, 35-99% MPB; 39-49 min, 99% MPB; 49-50, 99-1% MPB. The total run time was 50 min. To assist the desolvation for better sensitivity, methanol was delivered by an external pump and combined with the eluent via a low dead volume mixing tee. Data were acquired using a Thermo Orbitrap Fusion Tribrid Mass Spectrometer under ESI negative ionization mode at a resolution of 240,000. […]

intestinal microbiota = assay: 16S rRNA sequencing of fecal and mucosal microbiome in mice; format: in vivo
Procedure: Fecal samples which were collected from patients and mice and colonic mucosal samples, which were collected from mice were weighed before DNA isolation. […] The quality and quantity of the barcoded amplicons were assessed on an Agilent 4200 TapeStation system (Agilent) and Qubit Fluorometer (Thermo Fisher Scientific), and libraries were prepared after pooling at equimolar ratios. The final libraries were purified using QIAquick gel extraction kit (28706X4, Qiagen) and sequenced with a 2×250 base pair paired-end protocol on the Illumina MiSeq platform.
For differential abundance analysis, abundances of sequences belonging to taxonomical groups were included for analysis using the Mann-Whitney U test and adjusted for multiple comparisons using the method of Benjamini-Hochberg. Paired samples were analyzed using the Wilcoxon signed rank test with adjustment for multiple comparisons.

[2] = system: allogeneic mice (B6D2F1 recipients of B6 donor cells); assay: Murine GvHD model (allo-HSCT): survival and GvHD histology; format: in vivo; conditions: for severity of colonic GvHD: antibiotic in drinking water, colon collected day 20, vs control allogeneic mice
Procedure: In a murine model with a mucin-deficient mutate strain of BT, piperacillin/tazobactam was given at a concentration of 3.2 g/L in combination with vancomycin and metronidazole dosed 1.5 mg daily by oral gavage from days −16 to −12 relative to transplant.
D-(+)-xylose (X3877, Sigma-Aldrich) or D-(+)-glucose (G8270, Sigma-Aldrich) was dissolved in phosphate buffer pH 8.0 with meropenem or in water without meropenem and given at a concentration of 0.5% from days 13 to 28 after allo-HSCT.
Mice were transplanted as previously described (Hayase et al., 2017).
(§1) Pathology scores were quantified by a blinded pathologist. […] Sections were imaged using an Aperio AT2.

colonic mucus layer = assay: Colonic mucus thickness by PAS staining; format: in vivo, mice; conditions: meropenem-treated allogeneic mice (FIG. 6, FIG. 12 titles)
From the text: as §1

[3] = system: BT (MDA-JAX BT001) PUL transcripts; assay: RNA sequencing of stool: PUL expression in BT; format: in vivo, Bacteroides thetaiotaomicron; conditions: supplementation in meropenem-treated allogeneic mice
Procedure: Approximately 30 mg of stool was freshly collected in 700 μL of ice cold Qiazol containing 200 μL of 0.1 mm diameter Zirconia Silica beads (11079101z, BioSpec). Samples were bead beaten twice for 2 min with a 30 second interval recovery. Samples were then centrifuged at 12,000 g for 1 min and the supernatant was collected for RNA isolation using the RNeasy mini kit (74104, Qiagen). RNA was treated on column with DNase I (79254, Qiagen) to eliminate contaminating genomic DNA. RNA quantity and quality was determined using an Agilent 4200 TapeStation system (Agilent). 250 ng of total RNA from mouse stools was used to construct libraries using the Nugen Ovation Complete Prokaryotic RNA-Seq Systems (NuGen) or the Universal Prokaryotic RNA-Seq Library Preparation Kit (9367-32, Tecan) with Unique Dual Indexes (S02480-FG, Tecan), following the manufacturer's protocol. The cDNA libraries were sequenced on the Illumina MiSeq or NovaSeq 6000 system to produce either 1×300 bp single-end reads or 2×150 bp paired-end reads. […] The total reads of mouse stool samples were 950923±113406 (mean ±standard deviation) in FIG. 6A and 137623366±38865363 in FIG. 6G-H and 12G. […] Aligned mRNA expression changes were calculated using the Mann-Whitney U test in R software version 3.6.0 via RStudio version 1.2.1335. […]

[4] = system: mouse- and human-derived BT; assay: Bacterial culture of BT with or without monosaccharide; format: cell-based, Bacteroides thetaiotaomicron; conditions: carbohydrate-poor media, in vitro
Procedure: Mouse-derived BT (MDA-JAX BT001), Enterococcus faecalis (MDA-JAX EF001) and Clostridium disporicum (MDA-JAX CD001), Clostridium saudiense (MDA-JAX CS001), and Lachnospiraceae unclassified (MDA-JAX LS001) were isolated and cultured from mouse stool samples suspended in 1 ml of chilled 20% anaerobic glycerol in a Whitley anaerobic chamber (10% H2, 5% CO2 and 85% N2). Human-derived BT (ATCC 29148) was purchased from ATCC. Bacterial number was quantified using a Nexcelom Cellometer cell counter with SYTO™ BC dye and propidium iodide. For measuring MICs against meropenem, bacteria were cultured on BYE plates including 5% sterilized rumen fluid (Fisher Scientific) with MIC test strips (Liofilchem™ MTS™ Meropenem [MRP] 0.016-256 μg/mL, Fisher Scientific). Bacterial growth experiments were performed in a bacterial liquid media, BYEM10, composed of a hybrid of BHI and M10 supplemented with yeast extract (Table 4). Bacteria were cultured up to 48 hours at a starting concentration of 1×10^6 bacteria/ml in BYEM10 broth (pH 7.2) with and without 5 mg/ml of porcine gastric mucin (M1778, Sigma-Aldrich) with or without 0.5 mg/ml of D-(+)-xylose (X3877), D-(+)-mannose (M8574, Sigma-Aldrich) or D-(+)-glucose (G8270). Optical densities (OD600 nm) of bacterial cultures were measured with a BioTek EPOCH 2 plate reader.

Row | SMILES | fecal levels of SCFAs [1] | abundances of BT (intestinal microbiota; day 20, compared to meropenem-treated mice) | compositional differences between luminal and mucosal samples (intestinal microbiota; treated allogeneic mice, PERMANOVA testing) | severity of colonic GvHD [2] | mucolytic activity / mucus-degrading function of BT (colonic mucus layer) | expression of ORF GH2_PUL89_16 [3] | overall survival ([2]; 0.5% xylose days 13 to 28, meropenem-treated allogeneic mice) | growth of mouse- and human-derived BT [4]
1 | CO/N=C(\C(=O)N[C@@H]1C(=O)N2C(C(=O)[O-])=C(C[N+]3(C)CCCC3)CS[C@H]12)c1csc(N)n1 [cefepime] | did not show substantially reduced fecal levels of SCFAs | significantly lower abundances of BT | loss of compositional differences | do not increase the severity of colonic GvHD | – | – | – | –
2 | C[C@H]1COc2c(N3CCN(C)CC3)c(F)cc3c(=O)c(C(=O)O)cn1c23 [levofloxacin] | – | – | – | do not increase the severity of colonic GvHD | – | – | – | –
3 | O=C[C@H](O)[C@@H](O)[C@H](O)CO [xylose, D-(+)-xylose] | – | – | – | – | suppressed | significantly downregulated | significantly improved the survival | augmented
